Experimental findings from paper PMC9200625, “Identification and Functional Characterization of Peptides With Antimicrobial Activity From the Syphilis Spirochete, Treponema pallidum” (Frontiers in Microbiology, 2022) are described below.

The test system of experiment [1] is N. gonorrhoeae ATCC 700825. The format is cell-based, Neisseria gonorrhoeae. Here is the method: (§1) Bacterial strains used in this study were: E. coli ATCC 9723H, Pseudomonas aeruginosa ATCC 10148, Staphylococcus aureus ATCC 6538P (penicillin resistant), Streptococcus pyogenes (hospital isolate, strain unknown), Mycobacterium smegmatis MC^2155, N. gonorrhoeae ATCC 700825 (streptomycin resistant), and Salmonella enterica subsp. enterica serovar Typhimurium SL1344 (streptomycin resistant). E. coli, P. aeruginosa, S. aureus, M. smegmatis, and S. enterica were cultured aerobically at 37°C in Mueller Hinton broth (MHB) (Sigma-Aldrich, MO, United States) and on nonselective Mueller Hinton agar (MHA) plates. S. pyogenes was cultured in 5% carbon dioxide at 37°C in MHB supplemented with 5% lysed horse blood (Quad Five, MT, United States) (MHB + 5% HB) and on nonselective MHA plates supplemented with 5% defibrinated sheep blood (Quad Five, MT, United States) (MHA + 5% SB). N. gonorrhoeae was cultured in 5% carbon dioxide at 37°C in gonococcal (GC) chocolate broth medium and on nonselective GC agar plates [GC medium base (BD Difco, MD, United States) supplemented with 1% BBL™ hemoglobin (BD Biosciences, MD, United States) and 1% IsoVitaleX (BD Biosciences, MD, United States)]. Prior to antimicrobial susceptibility assays (as described below), N. gonorrhoeae cultures were subcultured on nonselective GC agar plates (as described above), to ensure bacterial viability. All bacterial stocks were stored in 20% glycerol at –80°C.
The potential antimicrobial activity of the T. pallidum peptides against N. gonorrhoeae was determined using a modified agar dilution method. In this assay, N. gonorrhoeae colonies from GC chocolate agar plates were resuspended in MHB and the turbidity of the suspension was adjusted, as described above, to achieve the standardized microbial inoculum of approximately 5 × 10^5 CFU/mL. A two-fold serial dilution of the peptides (11 μL in sterile ultrapure water) was then prepared in wells 1–10 of a 96-well sterile polypropylene plate to obtain a dilution series corresponding to 10 times the required testing concentrations (2,560, 1,280, 640, 320, 160, 80, 40, 20, 10, 5 μg/mL). The bacterial suspension (100 μL) was dispensed into the wells containing the peptides. A negative growth/sterility control (well 12) contained bacterial growth media (100 μL) and the peptide solvent (11 μL of ultrapure sterile water). A positive growth control (well 11) contained the standardized number of bacterial cells (100 μL of ∼ 5.0 × 10^5 CFU/mL) and peptide solvent (11 μL of ultrapure sterile water). The 96-well plate was then incubated at 37°C in an atmosphere of 5% CO2 for 3 h to allow for peptide binding and antimicrobial activity. After the incubation period, an aliquot (20 μL) from wells 1–12 was removed and spotted onto the surface of a GC chocolate agar plate. N. gonorrhoeae spotted plates and TVC plates were incubated at 37°C in an atmosphere of 5% CO2 for 18–24 h. […] To determine the bactericidal activity of peptides, total viable counts (TVCs) were also prepared on GC chocolate agar plates for the 3 h-incubated peptide/bacteria mixtures. These counts were compared with TVCs from the corresponding positive growth wells to give the percentage of bacteria killed by each of the peptides following the 3-h incubation.

In experiment [2] the test system is S. pyogenes Unknown strain; Clinical Isolate. It counts as cell-based, Streptococcus pyogenes. The settings on record: range over 3–9 independent experiments; for MIC: broth microdilution, cultured in MHB + 5% lysed horse blood, 5% carbon dioxide, ~5 × 10^5 CFU/mL, peptide 256–0.5 μg/mL, 37°C 16–24 h, visible growth; for MBC: wells at MIC, two-fold and four-fold higher plated on nonselective agar, 24 h 37°C. Here is the method: as §1
(§2) Bacterial suspensions were prepared by transferring bacterial colonies into MHB and resuspending using a vortex mixer to ensure complete suspension of any bacterial aggregates. Turbidity of the colony suspensions was adjusted spectrophotometrically to the required optical densities to achieve a turbidity equivalent to that of a 0.5 McFarland standard (1–2 × 10^8 CFU/mL) followed by dilution in MHB to achieve the standardized microbial inoculum of approximately 5 × 10^5 CFU/mL. Total viable counts (TVC) were routinely performed on all inoculum suspensions to ensure correct bacterial cell densities. The standardized bacterial suspensions were then incubated with two-fold serial dilutions of each peptide (dissolved in 11 μL of ultrapure sterile water; final peptide concentration range of 256 μg/mL–0.5 μg/mL) in Greiner polypropylene round bottom 96-well microtiter plates (Sigma-Aldrich, MO, United States). Each peptide was tested once per experiment, with a range of 3–9 independent experiments performed per peptide. Negative growth/sterility control wells contained bacterial growth media (100 μL) and the peptide solvent (11 μL of ultrapure sterile water). Positive growth control wells contained the standardized number of bacterial cells (100 μL of ∼ 5.0 × 10^5 CFU/mL) and peptide solvent (11 μL of ultrapure sterile water). Plates were incubated at 37°C for 16–24 h and MICs were determined using the unaided eye to identify the lowest concentration of AMP that inhibited visible growth of the tested bacterial species. If the sterility control well was turbid, the test was not considered valid. MBCs were determined by plating the entire content of the wells containing the peptide/bacteria mixture representing the MIC and the entire contents of the preceding wells containing two-fold and four-fold more concentrated AMP dilutions onto nonselective agar plates.

For another experiment, the system named is M. smegmatis MC^2155. The format is cell-based, Mycobacterium smegmatis. Here is the method:
as §1, §2

The next experiment relates to E. coli ATCC 9723H. The format is cell-based. The settings on record: range over 3–9 independent experiments; for MIC: broth microdilution in MHB, ~5 × 10^5 CFU/mL, peptide 256–0.5 μg/mL two-fold dilutions, 37°C 16–24 h, visible growth by unaided eye; for MBC: wells at MIC, two-fold and four-fold higher plated on nonselective agar, 24 h 37°C. Here is the method:
as §1, §2

A further experiment relates to P. aeruginosa ATCC 10148. It counts as cell-based, Pseudomonas aeruginosa. Here is the method:
as §1, §2

Where [3] appears, read: broth microdilution in MHB, ~5 × 10^5 CFU/mL, peptide 256–0.5 μg/mL two-fold dilutions, 37°C 16–24 h, visible growth by unaided eye, range over 3–9 independent experiments.
Where [4] appears, read: wells at MIC, two-fold and four-fold higher plated on nonselective agar, 24 h 37°C, range over 3–9 independent experiments.

Where two headings read alike, the source gives them in different places. Ends that are not written are not given here. Peptide text beside a SMILES is read from it.

As for `CC(C)C[C@H](NC(=O)[C@H](CCC(=O)O)NC(=O)[C@H](CC(N)=O)NC(=O)CNC(=O)[C@H](Cc1ccc(O)cc1)NC(=O)[C@H](CS)NC(=O)[C@H](Cc1c[nH]cn1)NC(=O)[C@H](CC(C)C)NC(=O)[C@H](CO)NC(=O)[C@H](CCCNC(=N)N)NC(=O)[C@H](Cc1c[nH]cn1)NC(=O)[C@H](Cc1ccc(O)cc1)NC(=O)CNC(=O)[C@@H](NC(=O)[C@H](CC(N)=O)NC(=O)[C@H](CS)NC(=O)[C@H](CC(N)=O)NC(=O)[C@H](CS)NC(=O)[C@H](Cc1c[nH]cn1)NC(=O)[C@H](CO)NC(=O)CNC(=O)[C@H](CS)NC(=O)CN)C(C)C)C(=O)N[C@@H](Cc1c[nH]cn1)C(=O)NCC(=O)N[C@@H](CCCCN)C(=O)N[C@@H](CCC(N)=O)C(=O)N[C@@H](CS)C(=O)NCC(=O)N[C@@H](Cc1ccccc1)C(=O)N[C@@H](CO)C(=O)N[C@@H](CCCNC(=N)N)C(=O)N[C@@H](CS)C(=O)NCC(=O)O` [Tp0451a_N] (H-GCGSHCNCNVGYHRSLHCYGNELHGKQCGFSRCG-OH), the “N. gonorrhoeae killing (%)” value in experiment [1] (ATCC 700825, 3 h, 128 μg/mL) amounted to 0%; in experiment [1] (ATCC 700825, 3 h, 256 μg/mL), 0%.

As to AMRIALWNRATHGEQGALQHLLAG [Tp0751_p5], the “N. gonorrhoeae killing (%)” value in experiment [1] (ATCC 700825, 3 h, 32 μg/mL) is recorded as 0%; in experiment [1] (ATCC 700825, 3 h, 64 μg/mL), 0%; in experiment [1] (ATCC 700825, 3 h, 128 μg/mL), 0%; in experiment [1] (ATCC 700825, 3 h, 256 μg/mL), 0%.

By MIC is commonly meant the lowest concentration found to suppress growth. A word on the MBC: it is the smallest concentration meeting the test's criterion for killing. For the compound IGRARAITHTWGIWCRWGKVWRRS [Tp0451a_C], the minimum inhibitory concentration (MIC) in experiment [2] lay within 5.4 to 10.8 µM; in the experiment with M. smegmatis MC^2155 (setting [3]), 1.4 to 2.7 µM. For the same compound, the MBC in experiment [2] was in the range of 5.4 to 43.3 µM; with M. smegmatis MC^2155 (setting [4]), 1.4 to 5.4 µM. Besides, the “N. gonorrhoeae killing (%)” value in experiment [1] (ATCC 700825, 3 h, 32 μg/mL) is listed as 0–93.0%; in experiment [1] (ATCC 700825, 3 h, 64 μg/mL), 90.5–100%; in experiment [1] (ATCC 700825, 3 h, 128 μg/mL), 94.4–100%; in experiment [1] (ATCC 700825, 3 h, 256 μg/mL) it was 97.6–100%.

Consider “IGRARAITHTWGIWSRWGKVWRRS [Tp0451a_C_C85S]”, for which the figures for the MIC (in the experiment with E. coli ATCC 9723H; in experiment [2]; against M. smegmatis MC^2155 (setting [3])) were 10.9 to 21.8 µM, 5.4 to 10.9 µM and 5.4 µM, respectively. Further, the MBC against E. coli ATCC 9723H is 10.9 to 43.6 µM; in experiment [2] it was 10.9 to 43.6 µM; against M. smegmatis MC^2155 (setting [4]), 10.9 µM. In addition, the “N. gonorrhoeae killing (%)” value in experiment [1] (ATCC 700825, 3 h, 32 μg/mL) is on record as 0%; in experiment [1] (ATCC 700825, 3 h, 64 μg/mL), 0%; in experiment [1] (ATCC 700825, 3 h, 128 μg/mL), 0%; in experiment [1] (ATCC 700825, 3 h, 256 μg/mL) it was 0%.

In the case of KGIVAERILKPCVRRKVNGKFRS [Tp0749_C], the results for the minimum inhibitory concentration (MIC) against E. coli ATCC 9723H, with P. aeruginosa ATCC 10148 (setting [3]) and in the experiment on M. smegmatis MC^2155 (setting [3]) were 12.0 µM, 24.1 to 48.2 µM and 1.5 to 3.0 µM, respectively. The values for the MBC against E. coli ATCC 9723H, with P. aeruginosa ATCC 10148 (setting [4]) and in the experiment with M. smegmatis MC^2155 (setting [4]) were 48.2 to 96.4 µM, 96.4 µM and 1.5 to 3.0 µM, respectively. The “N. gonorrhoeae killing (%)” value was 0% in experiment [1] (ATCC 700825, 3 h, 128 μg/mL) and 0% in experiment [1] (ATCC 700825, 3 h, 256 μg/mL).

On to KGIVAERILKPSVRRKVNGKFRS [Tp0749_C_C61S], for which the MIC in the experiment with E. coli ATCC 9723H is 24.2 to 48.5 µM; with P. aeruginosa ATCC 10148 (setting [3]), 97.0 µM; with M. smegmatis MC^2155 (setting [3]), 12.1 to 24.2 µM. In the experiment with M. smegmatis MC^2155 (setting [4]), this compound had an MBC of 24.2 to 48.5 µM. The “N. gonorrhoeae killing (%)” value in experiment [1] (ATCC 700825, 3 h, 128 μg/mL) is listed as 0%; in experiment [1] (ATCC 700825, 3 h, 256 μg/mL) it was 0%.

As for PFMQVITWARLYHKNQKRYEKIKK [Tp0749_N], the minimum inhibitory concentration (MIC) in the experiment on M. smegmatis MC^2155 (setting [3]) lay in the range of 0.3 to 1.3 µM. This compound had an MBC with M. smegmatis MC^2155 (setting [4]) of 1.3 µM. Moreover, the “N. gonorrhoeae killing (%)” value in experiment [1] (ATCC 700825, 3 h, 128 μg/mL) is 0%; in experiment [1] (ATCC 700825, 3 h, 256 μg/mL) it was 0%.

Turning to “RSLEGTDRFPFVRLKNSRKLEFKDIKGIKREQFVKIL [sLL-37]”, the MIC in the experiment with P. aeruginosa ATCC 10148 (ATCC 10148) is no less than 57 µM; with M. smegmatis MC^2155 (MC^2155), 14.2 to 28.5 µM. In the experiment on M. smegmatis MC^2155 (MC^2155, 24 h), this compound had an MBC of no less than 57 µM. The “N. gonorrhoeae killing (%)” value was 0% in experiment [1] (peptide 32 μg/mL, 3-h incubation 37°C 5% CO2, TVCs versus positive growth control, all of three to six independent experiments); 0% in experiment [1] (peptide 64 μg/mL, 3-h incubation 37°C 5% CO2, TVCs versus positive growth control, all of three to six independent experiments); 0% in experiment [1] (peptide 128 μg/mL, 3-h incubation 37°C 5% CO2, TVCs versus positive growth control, all of three to six independent experiments); 0% in experiment [1] (peptide 256 μg/mL, 3-h incubation 37°C 5% CO2, TVCs versus positive growth control, all of three to six independent experiments).
